Test results as given in paper PMC11728977, “Crystallographic, kinetic, and calorimetric investigation of PKA interactions with L-type calcium channels and Rad GTPase” (The Journal of Biological Chemistry, 2024).
No end group written: not given here.

Key:
[1] = biological target: PKAc (catalytic subunit of PKA, PKAcα 16-351) (Mus musculus, UniProt P05132); assay: ADP-Glo kinase assay, Michaelis-Menten kinetics of PKAc phosphorylation of substrates; details: for kcat / Km / kcat/Km: ADP-Glo, 3 nM PKAc, 1 mM ATP, 5 mM Mg2+; for kcat / Km: substrate 0-256 μM, room temperature 30 min; for kcat: 50 mM Hepes pH 7.4, 150 mM KCl, mean ± SD of n = 3 or 4 biological replicates, less reliable for poor substrates; for Km: Michaelis-Menten fit; for Km / kcat/Km: mean ± SD of n = 3 or 4; for reduction in kcat/Km versus WT Ser1981 peptide: from kcat/Km of Table 2
Protocol: We used enzyme kinetics to investigate the activity of catalytic subunit of PKA (PKAc) toward the three target sites within the C terminus of CaV1.2. We performed discontinuous kinase assays using an ADP-GloMax Assay kit.
Kinase assays were conducted using an ADP-Glo Kinase Assay Kit (Promega). […] Therefore, we performed assays with excess ATP (1 mM) and Mg^2+ (5 mM) to saturate PKAc prior to substrate binding. Reagents were prepared as described in the kit, aliquoted, and frozen at −20 °C prior to use. Reactions were conducted in 384-well solid white polystyrene microplates (Corning). Peptide substrates and EFPreIQ were dissolved and/or diluted to 800 μM using 50 mM Hepes (pH 7.4), 150 mM KCl, 5 mM MgCl2, and 4 mM TCEP. […] For peptides lacking tryptophan, the amount of volume needed to achieve a concentration of 800 μM was calculated prior to dissolving. The peptides/substrate was 2-fold serially diluted using the same buffer to create 11 reactions per curve ranging from 0 to 256 μM. ATP was added to each reaction to achieve a final concentration of 1 mM. Reactions were initiated by the addition of thawed PKAc at a final concentration of 3 nM at a final well volume of 20 μl. After allowing reactions to occur at room temperature for 30 min, 3 × 5 ml from each reaction in a curve was taken and mixed with 5 ml ADP-Glo Reagent for a total of three technical replicates per biological replicate. After 40 min, 10 ml of kinase detection reagent was added to each technical replicate and, after waiting 60 min, relative luminescence unit were measured using a VICTOR X4 Multilabel Plate Reader (PerkinElmer).
The relative luminescence unit values were converted to specific activity values via interpolation of a standard curve that was created in accordance with the manufacturer’s protocol. The three technical replicates were averaged to calculate a biological replicate value and plotted against peptide concentration using GraphPad 9 (Prism) software (https://www.graphpad.com/updates/prism-900-release-notes). Technical replicate values resulting from experimental error were removed from the dataset and subsequent averaging. […] The Michaelis–Menten kinetics fitting function was used to generate a nonlinear regression to calculate both a Km constant and Vmax value for each biological replicate curve. These Km constant and Vmax values were averaged and SDs are reported. Figures displaying data points and Michaelis–Menten curves depict the average specific activity values calculated from all biological replicates in the three or four experiments (n = 3 or n = 4) per peptide (n = 4 for Ser1981 and Ser272 peptides, n = 3 for all others).

[2] = biological target: T1, PKAc:AMP-PNP (Mus musculus, UniProt P05132); assay: Isothermal titration calorimetry of substrates binding to PKAc:AMP-PNP
T1 construct: 6xHis (N, cleaved yes); made in house; host or cells: Escherichia coli Rosetta (DE3)pLysS
Protocol: As an independent means to assess which substrate peptides are preferred by PKAc, we used ITC to determine the inherent affinities for the various peptides. ITC also provides the enthalpy and entropy changes upon binding and can thus help provide a rationale for different affinities. The ITC experiments were performed using excess Mg^2+ (5 mM) and 0.5 mM adenylyl-imidodiphosphate (AMP)-PNP (a nonhydrolyzable ATP analog) (Fig. 2).
ITC experiments were conducted using a MicroCal iTC200 (GE Healthcare, now Malvern) instrument. The ITC/assay buffer was used to dissolve peptides to a concentration of 1.25 to 4.3 mM. Substrate concentrations were optimized and chosen based on how much was needed to achieve sufficient signal to noise ratio. Rad Ser25 peptide contained a tryptophan residue, which allowed us to determine its concentration via 280 nm absorbance readings using an extinction coefficient of 5500 M^−1 cm^−1. For peptides lacking a tryptophan or tyrosine residue (Ser1981 WT and mutant peptides, Ser1718 peptide, Ser272 peptide, and Ser300 peptide), the amount of volume needed to achieve the desired concentration was calculated prior to diluting. Peptides were received as powder in 1 mg aliquots and using molecular weights of the peptide, the number of moles in each aliquot was determined. The number of moles was used to determine how much volume was required to achieve the desired concentration. AMP-PNP (Millipore Sigma) was dissolved in ITC/Assay buffer to a concentration of 100 mM, aliquoted in 20 μl volumes, and stored at −70 °C. Prior to each run, both titrant and titrand solutions were supplemented with AMP-PNP to a final concentration of 500 μM. The titration experiments were conducted at 4 °C with a stirring speed of 500 RPM. Each titration experiment was comprised of 20 injections with 230 s in between each injection. Each injection totalled 2.0 μl over 4 s except the first injection being 0.4 μl over 0.8 s. Background runs of peptide/substrate into ITC/assay buffer were conducted to generate a linear regression using the isotherm to subtract background heats from experimental runs. Peptides displaying large background heats were dialyzed in ITC/assay buffer for 60 min to remove contaminants remaining from peptide synthesis. The peptide into PKAc runs (experimental runs) utilized the same settings. The data was processed using Origin (Version 7.0, OriginLab) software (https://www.originlab.com/origin).

[3] = ITC, 4 °C, 0.5 mM AMP-PNP, 5 mM MgCl2, mean ± SD, n = 3
[4] = 4 °C, 0.5 mM AMP-PNP, 5 mM MgCl2

| Substance | kcat [1] [s⁻¹] | binding to PKAc detected by ITC [2, 4] | also measured |
| --- | --- | --- | --- |
| LRRASLG [Kemptide, reference compound] | 19.0 ± 1.5 |  | Km [1]: 42.6 ± 2.4 µM; kcat/Km [1]: 470000 ± 50000 M⁻¹ s⁻¹ |
| RGFLRSARLGRRASFHL [S1975R peptide, CaV1.2 S1981 peptide mutant S1975R] | 7.5 ± 0.9 |  | Km [1]: 6.2 ± 2.7 µM; kcat/Km [1]: 1.2e+06 ± 500000 M⁻¹ s⁻¹; reduction in kcat/Km versus WT Ser1981 peptide [1]: 37%; ΔG [2, 3]: -5.11 ± 2.2 kcal/mol; −TΔS [2, 3]: -8.6 ± 2.2 kcal/mol; reduction in affinity for PKAc versus WT Ser1981 peptide ([2]; ITC, from KD of Table 3): more than 15 fold |
| RGFLRSASLGRAASFHL [R1979A peptide, CaV1.2 S1981 peptide mutant R1979A] | 1.1 ± 0.1 | no longer detect any interaction | enzymatic activity of PKAc toward the peptide ([1]; ADP-Glo kinase assay): very low |
| RGFLRSASLGRRASAHL [F1982A peptide] |  |  | reduction in kcat/Km versus WT Ser1981 peptide [1]: ~26% |
| RTLHDIGPEIRRAISGDL [S1718 peptide, synthetic peptide, human CaV1.2 residues 1704–1721 containing Ser1718] | 3.4 ± 1.3 | could not detect any heat signals indicative of binding |  |
| SNADYLTRDWSILG… [EFPreIQ (S1535), recombinant human CaV1.3 residues 1468–1598 (EF-hand and PreIQ domain) mimicking the CaV1.2 Ser1535 site] | 1.3 ± 0.2 | could not detect any heat signals indicative of binding |  |
| SRKMAFRAKSKSCHD [Rad S300 peptide, Rad-derived peptide, residues 289–303 containing Ser300] | 3.3 ± 1.4 | not |  |
| WGPAPPLHRRSMP [Rad S38 peptide, Rad-derived peptide, residues 28–40 containing Ser38] | 2 ± 1.9 | not | kcat ([1]; listed as Ser38): 2.0 ± 1.9 s⁻¹ |
